Values joined by “and” are separate entries in the source; they are usually repeats but may differ in a detail not shown here. Identical values can stand only once.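 In this assay, cells in 96-well plates receive the compound at five concentrations for 48 hours. Endpoints are linearly interpolated between the surrounding concentrations. The concentration for 50% growth inhibition is given as GI50. The concentration for full growth arrest is given as TGI.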
Key:
Experiment in all cases: NCI anticancer screen, dose series, 48 h
NCI-H522 lung = tested on: NCI-H522 lung
SNB-19 CNS = tested on: SNB-19 CNS
MDA-MB-435 = tested on: MDA-MB-435
MOLT-4 leukemia = tested on: MOLT-4 leukemia
BT-549 breast = tested on: BT-549 breast
HT29 colon = tested on: HT29 colon
KM12 colon = tested on: KM12 colon
T-47D breast = tested on: T-47D breast
SR leukemia = tested on: SR leukemia
SNB-75 CNS = tested on: SNB-75 CNS

SMILES	GI50 (NCI-H522 lung)	TGI (NCI-H522 lung)	GI50 (SNB-19 CNS) [µM]	TGI (SNB-19 CNS) [µM]	GI50 (MDA-MB-435) [µM]	TGI (MDA-MB-435) [µM]	GI50 (MOLT-4 leukemia) [µM]	TGI (MOLT-4 leukemia) [µM]	GI50 (BT-549 breast) [µM]	TGI (BT-549 breast) [µM]	GI50 (HT29 colon)	TGI (HT29 colon)	GI50 (KM12 colon) [µM]	TGI (KM12 colon)	GI50 (T-47D breast) [µM]	TGI (T-47D breast) [µM]	TGI (SR leukemia) [µM]	TGI (SNB-75 CNS) [µM]	GI50 (SR leukemia) [µM]	GI50 (SNB-75 CNS) [µM]
NS(=O)(=O)c1ccc(-n2nc(-c3ccccc3)cc2-c2cc(O)ccc2O)cc1	> 100 µM	> 100 µM	> 100	> 100	92.1	> 100	8.71	> 100	> 100	> 100	74.8 µM	> 100 µM	38.5	> 100 µM	> 100	> 100	–	–	–	–
C=C(C)C1CC=C(C)C(O)([C@@]2(O)C[C@H](C(=C)C)CC=C2C)C1 (some centres not stated)	–	41.5 µM	–	> 100	–	–	–	43.9	–	–	–	37.7 µM	–	43.4 µM	–	–	58.1	54.2	–	–
CCC1=CCC(P(=O)(c2ccccc2)c2ccccc2)CC1C (configuration not stated)	–	47.4 µM	–	> 100	–	–	–	46.2	–	–	–	> 100 µM	–	> 100 µM	–	–	–	49.7	–	–
Nc1nc(N)c(CCCCc2ccccc2)c(/C=C/c2ccc([N+](=O)[O-])cc2)n1	–	5.57 µM	–	64.7	–	–	–	4.16	–	–	–	16.2 µM	–	10.8 µM	–	–	4.85	9.87	–	–
CN(C)c1ccc(/C=N/n2c(CCCCc3n[nH]c(=S)n3/N=C/c3ccc(N(C)C)cc3)n[nH]c2=S)cc1	> 100 µM	> 100 µM	> 100	> 100	> 100	> 100	> 100	> 100	–	–	> 100 µM	> 100 µM	> 100	> 100 µM	0.022	17.3	> 100	> 100	> 100	30.2
CCN(CC)CCCNc1nccc2c(C)c3[nH]c4ccncc4c(=O)c3cc12	–	1.86 µM	–	28.4	–	–	–	2.51	–	–	–	12.8 µM	–	15.5 µM	–	–	2.23	12.6	–	–
CCOC(=O)Nc1cc2c(c(N)n1)N=C(c1ccccc1)CN2	< 0.0001 µM	< 0.0001 µM	< 0.0001	> 59.5	< 0.0001	< 0.0001	–	–	–	–	< 0.0001 µM	–	< 0.0001	49 µM	–	> 90.5	> 100	31	–	–
O=c1oc2c(O)c(O)cc3c(=O)oc4c(O)c(O)cc1c4c23	–	43.1 µM	–	57.3	–	–	> 100	> 100	–	–	> 100 µM	> 100 µM	> 100	> 100 µM	–	–	> 100	90.3	–	–
O=C1NC(c2cccc3ccccc23)Nc2ccccc21 (configuration not stated)	0.0194 µM and 0.0497 µM	0.0765 µM and 0.25 µM	0.0554	> 100	–	0.0068	0.0443	–	–	> 100	0.0256 µM and 0.0306 µM	1.14 µM and 0.203 µM	–	5.91 µM and 10.4 µM	–	–	–	35.9	0.0106	–
Cc1cc(=O)n2c(cc3cccccc32)n1	–	> 100 µM	–	> 100	–	–	–	> 100	–	–	–	> 100 µM	–	> 100 µM	–	–	> 100	> 100	–	–

Reference: PubChem BioAssay (NCI)
